Measured values published in PMC9861744, “Polysulfone Membranes Doped with Human Neutrophil Elastase Inhibitors: Assessment of Bioactivity and Biocompatibility” (Membranes, 2023).

Molecular target: T1, Human neutrophil elastase (HNE) (Homo sapiens, UniProt P08246)
T1 construct: gene ELANE
T1 sequence (P08246 30-247): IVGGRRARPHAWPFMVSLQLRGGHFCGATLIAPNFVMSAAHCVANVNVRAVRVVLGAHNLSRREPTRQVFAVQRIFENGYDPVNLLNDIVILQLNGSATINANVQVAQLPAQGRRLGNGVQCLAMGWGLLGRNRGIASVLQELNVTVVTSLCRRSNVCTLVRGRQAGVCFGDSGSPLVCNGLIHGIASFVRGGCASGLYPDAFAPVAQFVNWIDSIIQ
Assay: fluorometric HNE activity assay with MeO-Suc-Ala-Ala-Pro-Val-AMC, […] min preincubation, […] °C
Format: biochemical

IC50: 18 nM
Structure (SMILES): CCC1(CC)C(=O)N(c2ccc(C(=O)O)cc2)C1=O [D4L-2]
